Converted amounts (≈) assume the structure as drawn. Numbered stars: 1 amine (or outer) side, 2 acyl side, 3 side chain; on linkers, the order of the positions; unused ones are H or OH. Bridge positions count the residues as written; N and C are the ends. Square brackets hold non-standard residues; d marks the D form. Peptide text beside a SMILES is read from it. * marks the point of attachment. hTyr(3S-OH,4S-OH,3'-OSO3H) = N[C@H](C(=O)O)[C@H](O)[C@@H](O)c1ccc(O)c(OS(=O)(=O)O)c1; pTerphenylCO(4''-OnC5H11) = CCCCCOc1ccc(-c2ccc(-c3ccc(C(=O)*)cc3)cc2)cc1; Orn(4R-OH,5R-OH) = O=C([C@H](C[C@@H](O)[C@@H](O)N[*:3])N[*:1])[*:2]; hTyr(3S-OH,4S-OH) = N[C@H](C(=O)O)[C@H](O)[C@@H](O)c1ccc(O)cc1; Pro(3S-OH,4S-Me) = C[C@H]1CN[C@H](C(=O)O)[C@H]1O; X1 = CCCCCOc1ccc(-c2cc(-c3ccc(C(=O)*)cc3)no2)cc1; Gln(3R-OH) = NC(=O)C[C@@H](O)[C@H](N)C(=O)O; Hyp = O=C(O)[C@@H]1C[C@@H](O)CN1
Key:
Candida albicans [1] = experiment: Antifungal activity against Candida albicans ATCC 10231 by CLSI-based serial dilution method; assay type: functional
[2] = Inhibition of Candida albicans GFA1 using D-Fru6P and L-glutamine as substrate incubated for 30 mins by Elson-Morgan method
Pichia kudriavzevii [3] = experiment: Antifungal activity against Candida krusei DSM 6128 by CLSI-based serial dilution method; assay type: functional
[4] = Antifungal activity against Candida arborea KKP319 by CLSI-based serial dilution method; assay type: functional
Nakaseomyces glabratus [5] = experiment: Antifungal activity against Candida glabrata DSM 11226 by CLSI-based serial dilution method; assay type: functional
Candida parapsilosis [6] = experiment: Antifungal activity against Candida parapsilosis K1154 by agar incorporation method; assay type: functional; details: Lodderomyces parapsilosis
[7] = Inhibition of Beta-1,3-glucan synthase in Schizosaccharomyces pombe pbr1-8
Cyberlindnera jadinii = experiment: Antifungal activity against Candida utilis K482 by agar incorporation method; assay type: functional; details: Williopsis jadinii
Pichia kudriavzevii [8] = experiment: Antifungal activity against Candida krusei K1153 by agar incorporation method; assay type: functional
Candida albicans [9] = experiment: Antifungal activity against Candida albicans K1082 by agar incorporation method; assay type: functional
Candida parapsilosis [10] = experiment: Antifungal activity against Candida parapsilosis K332 by agar incorporation method; assay type: functional; details: Lodderomyces parapsilosis
Candida tropicalis [11] = experiment: Antifungal activity against Candida tropicalis K1155 by agar incorporation method; assay type: functional
Candida albicans [12] = experiment: Antifungal activity against Candida albicans K1133 by agar incorporation method; assay type: functional
Candida tropicalis [13] = experiment: Antifungal activity against Candida tropicalis K337 by agar incorporation method; assay type: functional
Candida albicans [14] = experiment: Antifungal activity against Candida albicans K335 by agar incorporation method; assay type: functional
[15] = test system: Meyerozyma guilliermondii; experiment: Antifungal activity against Candida guilliermondii K334 by agar incorporation method; assay type: functional
[16] = Inhibition of Beta-1,3-glucan synthase in wild type Schizosaccharomyces pombe
[17] = Inhibition of Beta-1,3-glucan synthase in Schizosaccharomyces pombe pbr1-6
Candida albicans [18] = experiment: Antifungal activity against Candida albicans K341 by agar incorporation method; assay type: functional
Chitotriosidase-1 = Chitotriosidase-1 (Homo sapiens, UniProt Q13231); experiment: Inhibition of human chitinase1 incubated for 70 mins using 4MU-NAG2 as substrate by fluorescence method
Chain of Chitotriosidase-1 (Q13231 whole entry): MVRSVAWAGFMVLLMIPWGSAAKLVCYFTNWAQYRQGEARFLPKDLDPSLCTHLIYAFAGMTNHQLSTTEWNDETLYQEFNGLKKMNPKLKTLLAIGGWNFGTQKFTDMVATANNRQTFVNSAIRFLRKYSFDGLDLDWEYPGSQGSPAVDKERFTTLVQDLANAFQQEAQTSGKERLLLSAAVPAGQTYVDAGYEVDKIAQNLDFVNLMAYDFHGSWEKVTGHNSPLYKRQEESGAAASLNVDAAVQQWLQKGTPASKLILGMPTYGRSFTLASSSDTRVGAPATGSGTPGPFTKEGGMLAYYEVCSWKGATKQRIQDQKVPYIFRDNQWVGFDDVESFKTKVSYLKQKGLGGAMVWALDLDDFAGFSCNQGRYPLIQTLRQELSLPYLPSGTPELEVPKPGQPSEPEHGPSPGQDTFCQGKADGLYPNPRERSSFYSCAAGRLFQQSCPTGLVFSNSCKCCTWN

Endochitinase A1 = Endochitinase A1 (Aspergillus fumigatus, UniProt Q873Y0); experiment: Inhibition of Aspergillus fumigatus chiA1 (Arg28 to His337) expressed in Pichia pastoris incubated for 70 mins using 4MU-NAc3 as substrate by fluorescence method
Chain of Endochitinase A1 (Q873Y0 whole entry): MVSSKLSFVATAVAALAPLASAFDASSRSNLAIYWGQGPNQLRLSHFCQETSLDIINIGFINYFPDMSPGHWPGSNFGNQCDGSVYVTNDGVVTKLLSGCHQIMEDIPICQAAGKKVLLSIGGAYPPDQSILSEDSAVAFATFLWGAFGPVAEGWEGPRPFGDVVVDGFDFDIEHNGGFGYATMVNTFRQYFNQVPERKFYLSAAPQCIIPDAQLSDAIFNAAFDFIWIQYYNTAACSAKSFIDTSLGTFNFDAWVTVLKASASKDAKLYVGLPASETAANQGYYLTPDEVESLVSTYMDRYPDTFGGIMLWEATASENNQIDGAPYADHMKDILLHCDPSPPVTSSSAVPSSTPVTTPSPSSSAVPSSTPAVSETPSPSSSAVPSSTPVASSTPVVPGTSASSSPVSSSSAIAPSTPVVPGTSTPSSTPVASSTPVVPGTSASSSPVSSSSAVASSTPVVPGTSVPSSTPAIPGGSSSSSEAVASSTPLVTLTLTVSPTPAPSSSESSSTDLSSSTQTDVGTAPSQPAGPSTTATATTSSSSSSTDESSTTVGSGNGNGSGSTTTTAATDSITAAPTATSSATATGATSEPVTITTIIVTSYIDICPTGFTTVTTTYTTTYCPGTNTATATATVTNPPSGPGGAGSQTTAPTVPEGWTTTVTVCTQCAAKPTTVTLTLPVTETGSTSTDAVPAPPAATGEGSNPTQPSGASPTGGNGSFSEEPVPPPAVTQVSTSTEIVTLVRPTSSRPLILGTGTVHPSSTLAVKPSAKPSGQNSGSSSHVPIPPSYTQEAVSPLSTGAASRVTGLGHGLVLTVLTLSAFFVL

[19] = Inhibition of Saccharomyces cerevisiae CTS1 incubated for 70 mins by fluorescence method
Aspergillus fumigatus [20] = experiment: Antifungal activity against Aspergillus fumigatus clinical isolate 293 infected in Hartley guinea pig model of invasive pulmonary aspergillosis assessed as percent survival of pig at 10 mg/kg, sc administered until day 8 starting from day 1 post infection; assay type: functional; details: Af293, sc, 192 h, time 8 day
Aspergillus fumigatus [21] = experiment: Antifungal activity against Aspergillus fumigatus clinical isolate 293 infected in Hartley guinea pig model of invasive pulmonary aspergillosis assessed as pig median survival time at 10 mg/kg, sc administered until day 8 starting from day 1 post infection; assay type: functional, Af293; details: time 8 day
Candida parapsilosis [22] = experiment: Antifungal activity against Candida parapsilosis ATCC22019 by CLSI method; assay type: functional; details: Lodderomyces parapsilosis
Candida albicans [23] = experiment: Antifungal activity against Candida albicans Ca2323/ORF6.945 by CLSI method; assay type: functional
Clavispora lusitaniae = experiment: Antifungal activity against Candida lusitaniae MY1396 by CLSI method; assay type: functional
Nakaseomyces glabratus [24] = experiment: Antifungal activity against Candida glabrata MY1381 by CLSI method; assay type: functional
Candida albicans [25] = experiment: Antifungal activity against Candida albicans Ca1055 by CLSI method; assay type: functional
Erythrocyte = experiment: Hemolytic activity in ICR mouse red blood cells incubated for 2 hrs by visual observation; assay type: ADME, cell-based
[26] = Elimination half life life in iv dosed human; details: in vivo
Candida albicans [27] = experiment: Antifungal activity against Candida albicans CY1002 infected in iv dosed ICR mouse administered as single dose measured on day 7; assay type: functional; details: 168 h, time 7 day
Candida parapsilosis [28] = experiment: Antifungal activity against Candida parapsilosis incubated for 24 hrs by CLSI method; assay type: functional; details: Lodderomyces parapsilosis
Pichia kudriavzevii [29] = experiment: Antifungal activity against Candida krusei incubated for 24 hrs by CLSI method; assay type: functional
Candida albicans [30] = experiment: Antifungal activity against Candida albicans incubated for 24 hrs by CLSI method; assay type: functional
Cryptococcus neoformans = experiment: Antifungal activity against Cryptococcus neoformans H99 incubated for 72 hrs by CLSI M27A method; assay type: functional; details: var grubii H99
Candida tropicalis [31] = experiment: Antifungal activity against Candida tropicalis incubated for 24 hrs by CLSI method; assay type: functional
[32] = Inhibition of Cryptococcus neoformans (H99) 1,3-beta-glucan synthase component FKS1 using UDP-[14C]glucose as substrate; parameters: species or system Cryptococcus neoformans var. grubii H99
Nakaseomyces glabratus [33] = experiment: Antifungal activity against Candida glabrata incubated for 24 hrs by CLSI method; assay type: functional
Aspergillus fumigatus [34] = experiment: Antifungal activity against Aspergillus fumigatus CF1083 infected in iv dosed mouse model of pulmonary aspergillosis administered once daily for 4 days and measured on day 14; assay type: functional; details: 336 h, time 14 day
Candida albicans [35] = experiment: Antifungal activity against Candida albicans A9540 infected in iv dosed ICR mouse assessed as protection against fungus-induced lethal infection dosed once immediately following fungal challenge and measured on day 20 post infection; assay type: functional; details: 480 h, time 20 day, read-out: PD50

CC(=O)N[C@@H](CO)[C@@H](O)[C@H](O)[C@H](O)CS(=O)(=O)O
MIC (Candida albicans [1]): 1000 µg/mL (≈ 3480 µM) | IC50 [2]: > 5000 µM

COS(=O)(=O)C[C@H]1OC(O)[C@H](NC(C)=O)[C@@H](O)[C@@H]1O (stereo partly specified)
MIC (Pichia kudriavzevii [3]): > 4000 µg/mL | MIC (Candida albicans [1]): > 4000 µg/mL | MIC [4]: > 4000 µg/mL | MIC (Nakaseomyces glabratus [5]): > 4000 µg/mL

CCC(O)/C=C/C=C\C=C\C(=O)OC[C@H]1O[C@@H](O[C@H]2[C@H](OC(=O)/C=C/C=C/C[C@H](O)/C(C)=C/C=C/CC[C@@H](C)CC)[C@@H](O)[C@@]3(OCc4cc(O)cc(O)c43)O[C@@H]2CO)[C@H](O)[C@@H](O)[C@H]1O (stereo partly specified)
MIC (Candida parapsilosis [6]): 0.1 µg/mL (≈ 0.111 µM) | IC50 [7]: > 250 µg/mL | MIC (Cyberlindnera jadinii): 0.1 µg/mL (≈ 0.111 µM) | MIC (Pichia kudriavzevii [8]): 0.1 µg/mL (≈ 0.111 µM) | MIC (Candida albicans [9]): 0.1 µg/mL (≈ 0.111 µM) | MIC (Candida parapsilosis [10]): 0.1 µg/mL (≈ 0.111 µM) | MIC (Candida tropicalis [11]): 0.1 µg/mL (≈ 0.111 µM) | MIC (Candida albicans [12]): 0.1 µg/mL (≈ 0.111 µM) | MIC (Candida tropicalis [13]): 0.1 µg/mL (≈ 0.111 µM) | MIC (Candida albicans [14]): 0.1 µg/mL (≈ 0.111 µM) | MIC [15]: 0.1 µg/mL (≈ 0.111 µM) | IC50 [16]: 0.02 µg/mL (≈ 0.0222 µM) | IC50 [17]: > 250 µg/mL | MIC (Candida albicans [18]): 0.1 µg/mL (≈ 0.111 µM)

COc1ccccc1-c1noc2nc(C)[nH]c(=O)c12
IC50 (Chitotriosidase-1): > 100 µM | IC50 (Endochitinase A1): 2.6 µM | IC50 [19]: 0.5 µM

COc1cc(C[C@@H](O)[C@@H]2NC(=O)[C@@H]3C[C@@H](O)CN3C(=O)[C@H]([C@@H](C)O)NC(=O)[C@H](NC[C@H]3CC[C@H](c4nnc(-c5ccc(N6CCC(OC)(C7CCCCC7)CC6)cc5)s4)CC3)C[C@@H](O)CNC(=O)[C@@H]3[C@@H](O)[C@@H](C)CN3C(=O)[C@H]([C@H](O)CCNC(CO)CO)NC2=O)ccc1O
survival at 10 mg/kg (Aspergillus fumigatus [20]): 31.2% | Time (Aspergillus fumigatus [21]): 9.5 days

COc1ccc(NC(=O)COc2cccc(OCC(C)C)c2)cc1
MIC (Candida parapsilosis [22]): 2 µg/mL (≈ 6.07 µM) | MIC (Candida albicans [23]): 4 µg/mL (≈ 12.1 µM) | MIC (Clavispora lusitaniae): 4 µg/mL (≈ 12.1 µM) | MIC (Nakaseomyces glabratus [24]): 4 µg/mL (≈ 12.1 µM) | MIC (Candida albicans [25]): 4 µg/mL (≈ 12.1 µM)

C[C@@H]1[C@H](O)[C@@H](C)/C=C/C=C/C=C/C=C/C=C/C=C/C=C/[C@H](O[C@@H]2O[C@H](C)[C@@H](O)[C@H](N)[C@@H]2O)C[C@@H]2O[C@](O)(C[C@@H](O)C[C@@H](O)[C@H](O)CC[C@@H](O)C[C@@H](O)CC(=O)O[C@H]1C)C[C@H](O)[C@H]2C(=O)O [AMPHOTERICIN B]
MHC (Erythrocyte): 8 µg/mL

CCCCCOc1ccc(-c2ccc(-c3ccc(C(=O)N[C@H]4C[C@@H](O)[C@@H](O)NC(=O)[C@@H]5[C@@H](O)[C@@H](C)CN5C(=O)[C@H]([C@@H](C)O)NC(=O)[C@H]([C@H](O)[C@@H](O)c5ccc(O)cc5)NC(=O)[C@@H]5C[C@@H](O)CN5C(=O)[C@H]([C@@H](C)O)NC4=O)cc3)cc2)cc1 [ANIDULAFUNGIN] ({pTerphenylCO(4''-OnC5H11)}-[Orn(4R-OH,5R-OH)]T[Hyp][hTyr(3S-OH,4S-OH)]T[Pro(3S-OH,4S-Me)]; lactam 1-C)
half-life [26]: 24 h | ED50 (Candida albicans [27]): 0.22 mg/kg

CC[C@H](C)C[C@H](C)CCCCCCCCC(=O)N[C@H]1C[C@@H](O)[C@@H](NCCN)NC(=O)[C@@H]2[C@@H](O)CCN2C(=O)[C@H]([C@H](O)CCN)NC(=O)[C@H]([C@H](O)[C@@H](O)c2ccc(O)cc2)NC(=O)[C@@H]2C[C@@H](O)CN2C(=O)[C@H]([C@@H](C)O)NC1=O [CASPOFUNGIN]
MIC90 (Candida parapsilosis [28]): 0.5 µg/mL (≈ 0.457 µM) | MIC90 (Pichia kudriavzevii [29]): 1 µg/mL (≈ 0.915 µM) | IC50 [7]: 250 µg/mL (≈ 229 µM) | MIC90 (Candida albicans [30]): 2 µg/mL (≈ 1.83 µM) | MIC (Cryptococcus neoformans): 16 µg/mL (≈ 14.6 µM) | MIC90 (Candida tropicalis [31]): 1 µg/mL (≈ 0.915 µM) | Ki [32]: 0.17 µM | MIC90 (Nakaseomyces glabratus [33]): 16 µg/mL (≈ 14.6 µM) | IC50 [16]: 0.3 µg/mL (≈ 0.274 µM) | IC50 [17]: 150 µg/mL (≈ 137 µM) | ED50 (Aspergillus fumigatus [34]): > 15 mg/kg

CCCCCOc1ccc(-c2cc(-c3ccc(C(=O)N[C@H]4C[C@@H](O)[C@@H](O)NC(=O)[C@@H]5[C@@H](O)[C@@H](C)CN5C(=O)[C@H]([C@H](O)CC(N)=O)NC(=O)[C@H]([C@H](O)[C@@H](O)c5ccc(O)c(OS(=O)(=O)O)c5)NC(=O)[C@@H]5C[C@@H](O)CN5C(=O)[C@H]([C@@H](C)O)NC4=O)cc3)no2)cc1 [MICAFUNGIN] (X1-[Orn(4R-OH,5R-OH)]T[Hyp][hTyr(3S-OH,4S-OH,3'-OSO3H)][Gln(3R-OH)][Pro(3S-OH,4S-Me)]; lactam 1-C)
half-life [26]: 10 h

CN[C@@H]1[C@H](O[C@@H]2OC[C@@H](O)[C@H](O)[C@H]2O)[C@@H](O)[C@H](O[C@H]2c3cc(C)c(C(=O)N[C@H](C)C(=O)O)c(O)c3-c3c(cc4c(c3O)C(=O)c3cc(OC)cc(O)c3C4=O)[C@@H]2O)O[C@@H]1C [PRADIMICIN A]
ED50 (Candida albicans [35]): 8.9 mg/kg
